Assay results as given in US7074785B2, “Δ1-pyrrolines used as pesticides” (Bayer Cropscience AG, priority 2001, dated 2006).
Read-outs that look alike come from different tables or passages of the source.

Key:
[1] = logP determination by HPLC (reversed-phase C18, EEC Directive 79/831 Annex V.A8); assay type: physicochemical
Procedure: The logP values stated in the above tables and Preparation Examples are determined in accordance with EEC Directive 79/831 Annex V.A8 by HPLC (High Performance Liquid Chromatography) using a reversed-phase column (C 18). Temperature: 43° C.
In the acidic range at pH 2.3 the determination takes place using 0.1% aqueous phosphoric acid and acetonitrile as the mobile phases; linear gradient from 10% acetonitrile to 90% acetonitrile. Corresponding results are marked in the tables by “a)”
In the neutral range at pH 7.5 the determination takes place using 0.01 molar aqueous phosphate buffer solution and acetonitrile as the mobile phases; linear gradient from 10% acetonitrile to 90% acetonitrile. Corresponding results are marked in the tables by “b)”
Calibration is carried out using unbranched alkan-2-ones (having 3 to 16 carbon atoms), with known logP values (the logP values determined on the basis of the retention times using linear interpolation between two successive alkanones).

[2] = system: Heliothis virescens caterpillars; experiment: Heliothis virescens test; assay type: in vivo; conditions: 100 ppm, soya bean shoots dipped
Excerpt: (§1) Solvent: 7 parts by weight of dimethylformamide

[3] = system: caterpillars of the cabbage moth (Plutella xylostella, sensitive strain); experiment: Plutella test, sensitive strain; assay type: in vivo; conditions: 100 ppm, cabbage leaves dipped
Excerpt: Plutella Test, Sensitive Strain
as §1

[4] = system: caterpillars of the cabbage moth (Plutella xylostella), resistant strain; experiment: Plutella test, resistant strain; assay type: in vivo; conditions: 100 ppm, cabbage leaves dipped
Excerpt: Plutella Test, Resistant Strain
as §1

[5] = system: army worm (Spodoptera exigua) caterpillars; experiment: Spodoptera exigua test; assay type: in vivo; conditions: 100 ppm, cabbage leaves dipped
Excerpt: as §1

[6] = system: army worm (Spodoptera frugiperda) caterpillars; experiment: Spodoptera frugiperda test; assay type: in vivo; conditions: in Brassica oleracea, 168 h, read-out: Kill rate in % after 7 d, 100 ppm, cabbage leaves dipped, Spodoptera frugiperda
[7] = system: greenhouse red spider mite (Tetranychus urticae); experiment: Tetranychus test (OP resistant/dip treatment); assay type: in vivo; conditions: 168 h, read-out: Kill rate in % after 7 d, 100 ppm, bean plants dipped, Tetranychus urticae OP-resistant
Procedure: Tetranychus Test (OP Resistant/Dip Treatment)
as §1
After the desired period of time, the effect in % is determined.

[8] = system: larvae of the mustard beetle (Phaedon cochleariae); experiment: Phaedon larvae test; conditions: in Brassica oleracea, 168 h, read-out: Kill rate in % after 7 d, 100 ppm, cabbage leaves dipped, Phaedon cochleariae larvae
[9] = system: Boophilus microplus resistant/SP-resistant Parkhurst strain, adult satiated females; experiment: Test with Boophilus microplus resistant/SP-resistant Parkhurst strain; assay type: in vivo; conditions: injected into abdomen, fertile egg deposition after 7 days
Procedure: Test with Boophilus microplus Resistant/SP-Resistant Parkhurst Strain
Test animals: Adult satiated females
(§2) Solvent: Dimethyl sulphoxide
20 mg of active compound are dissolved in 1 ml of dimethyl sulphoxide. Lower concentrations are prepared by dilution in the same solvent.
The test is carried out in 5 replications. 1 μl of the solutions is injected into the abdomen, and the animals are transferred to dishes and kept in a climate-controlled room. After 7 days, activity is checked by examination for deposition of fertile eggs. Eggs whose fertility is not externally visible are stored in glass tubes in a controlled-environment cabinet until the larvae have hatched. An activity of 100% denotes that none of the ticks has laid fertile eggs.

[10] = system: Adult Musca domestica, Reichswald strain (OP, SP, carbamate-resistant); experiment: Test with flies (Musca domestica); assay type: in vivo; conditions: filter paper disc
Procedure: Test with Flies (Musca domestica)
Test animals: Adult Musca domestica, Reichswald strain (OP, SP, carbamate-resistant)
as §2
20 mg of active compound are dissolved in 1 ml dimethyl sulphoxide. Lower concentrations are prepared by dilution with distilled water.
2 ml of this active compound preparation are pipetted on filter paper discs (Ø9.5 cm) in Petri dishes of corresponding dimensions. After the filter discs have been dried, 25 test animals are transferred to the Petri dishes, which are then covered.
After 1, 3, 5, 24 and 48 hours the activity of the active compound preparation is measured. 100% means that all flies have been killed, 0% means that no fly has been killed.

[11] = HPLC, acidic range pH 2.3, 0.1% aqueous phosphoric acid/acetonitrile; marked a), read-out: log P (pH 2.3)
[12] = HPLC, neutral range pH 7.5, 0.01 molar phosphate buffer/acetonitrile; marked b), read-out: log P (pH 7.5)

SMILES	chromatographic logP [1, 11]	chromatographic logP [1, 12]	Kill rate in % after 7 d [2] [%]	Kill rate in % after 7 d [3] [%]	Kill rate in % after 7 d [4] [%]	Kill rate in % after 7 d [5] [%]	pest or weed control at 100 ppm [6] [%]	pest or weed control at 100 ppm [7] [%]	pest or weed control at 100 ppm [8] [%]	Activity/kill in % ([9]; 20 μg/animal) [%]	Activity/kill in % ([9]; 100 μg/animal) [%]	Activity/kill in % ([9]; 4 μg/animal) [%]	chromatographic logP ([1]; reversed-phase C18 HPLC column; HPLC, acidic range pH 2.3, 0.1% aqueous phosphoric acid/acetonitrile; marked a), read-out: log P (pH 2.3))	chromatographic logP ([1]; reversed-phase C18 HPLC column; HPLC, neutral range pH 7.5, 0.01 molar phosphate buffer/acetonitrile; marked b), read-out: log P (pH 7.5))	Activity/kill in % ([10]; 20 ppm) [%]	Activity/kill in % ([10]; 100 ppm) [%]
CCOC(=O)Nc1ccc(-c2ccc(C3CCC(c4c(F)cccc4F)=N3)cc2)cc1 (stereo not drawn) [Compound 6]	2.62	3.85	100	100	100	100	≥ 95	≥ 85	≥ 85							
CC(C)OC(=O)Nc1ccc(-c2ccc(C3CCC(c4c(F)cccc4F)=N3)cc2)cc1 (stereo not drawn) [Compound 7]	3	4.19	100	100	100	100	≥ 95	≥ 85	≥ 85	0	40					
CC(C)COC(=O)Nc1ccc(-c2ccc(C3CCC(c4c(F)cccc4F)=N3)cc2)cc1 (stereo not drawn) [Compound 8]	3.32	4.54	100	100	100	100				40	80	0				
CNC(=O)Nc1ccc(-c2ccc(C3CCC(c4c(F)cccc4F)=N3)cc2)cc1 (stereo not drawn) [Compound 13]													1.71	2.78	0	30
